# Assay results reported in patent US8785457B2 (Cellzome Limited, priority 2009, dated 2014).
# Key:
# PI3 Kbeta (PI3 Kb) = biological target: T1, PI3 Kbeta (PI3 Kb) (Homo sapiens, UniProt P42338); assay: kinobeads assay, PI3Kbeta; format: binding; details: kinobeads assay, Table 6; read-out: Inhibition values (IC50) PI3Kb
# T1 construct: endogenous in cells; host or cells: cell lysate
# In short: (§1)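 IC50s are fitted to per-kinase dose-response curves. Kinases retained on phenylmorpholin-chromen affinity beads are read by multiplexed immunodetection after elution. Compound, added at a range of concentrations straight into cell lysate, competes for this bead capture.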
# PI3Kalpha (PI3Ka) = biological target: T2, PI3Kalpha (PI3Ka) (Homo sapiens, UniProt P42336); assay: kinobeads assay, PI3Kalpha; format: binding; details: kinobeads assay, Table 6
# T2 construct: endogenous in cells; host or cells: cell lysate
# In short: as §1
# mTOR = biological target: T3, mTOR (Homo sapiens, UniProt P42345); assay: mTOR kinobeads assay (competitive binding in Jurkat cell lysate, immunodetection); details: kinobeads assay, Table 6; read-out: Inhibition values (IC50) mTOR
# T3 construct: endogenous in cells; host or cells: Jurkat, clone E6-1 (ATCC TIB-152) cell lysate
# In short: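 IC50 derived from dose-response curves of mTOR captured on immobilized phenylmorpholin-chromen beads, detected by antibody dot blot with infrared fluorescence.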
# T1 sequence (P42338 whole entry): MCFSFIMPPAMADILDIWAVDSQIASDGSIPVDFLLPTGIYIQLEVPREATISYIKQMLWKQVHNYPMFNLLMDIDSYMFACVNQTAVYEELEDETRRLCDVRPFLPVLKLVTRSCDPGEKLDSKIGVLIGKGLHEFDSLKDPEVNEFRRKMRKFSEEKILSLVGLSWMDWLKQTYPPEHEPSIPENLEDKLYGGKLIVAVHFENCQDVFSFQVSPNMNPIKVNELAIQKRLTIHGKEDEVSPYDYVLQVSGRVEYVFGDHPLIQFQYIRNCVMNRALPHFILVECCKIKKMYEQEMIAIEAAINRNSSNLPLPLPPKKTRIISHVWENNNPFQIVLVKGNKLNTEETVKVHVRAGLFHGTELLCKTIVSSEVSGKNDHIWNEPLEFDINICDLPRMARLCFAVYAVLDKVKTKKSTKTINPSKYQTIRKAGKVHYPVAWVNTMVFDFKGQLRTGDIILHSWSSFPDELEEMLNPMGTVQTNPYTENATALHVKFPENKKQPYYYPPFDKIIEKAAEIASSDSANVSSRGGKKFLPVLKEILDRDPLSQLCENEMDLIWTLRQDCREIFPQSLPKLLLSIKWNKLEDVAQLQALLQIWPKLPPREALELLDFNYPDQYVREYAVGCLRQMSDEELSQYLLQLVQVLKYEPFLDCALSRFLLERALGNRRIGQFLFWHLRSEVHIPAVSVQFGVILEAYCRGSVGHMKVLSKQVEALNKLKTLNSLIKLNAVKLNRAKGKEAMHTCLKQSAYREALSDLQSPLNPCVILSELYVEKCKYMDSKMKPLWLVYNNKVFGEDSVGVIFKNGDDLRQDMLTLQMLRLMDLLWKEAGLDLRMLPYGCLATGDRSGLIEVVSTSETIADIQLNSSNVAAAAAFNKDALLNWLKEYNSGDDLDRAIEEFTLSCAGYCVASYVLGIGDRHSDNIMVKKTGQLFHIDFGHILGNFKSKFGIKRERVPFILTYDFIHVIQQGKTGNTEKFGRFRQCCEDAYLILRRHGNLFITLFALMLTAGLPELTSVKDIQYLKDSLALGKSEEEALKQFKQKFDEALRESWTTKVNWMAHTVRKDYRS
# T1 sequence (P27986 whole entry partner): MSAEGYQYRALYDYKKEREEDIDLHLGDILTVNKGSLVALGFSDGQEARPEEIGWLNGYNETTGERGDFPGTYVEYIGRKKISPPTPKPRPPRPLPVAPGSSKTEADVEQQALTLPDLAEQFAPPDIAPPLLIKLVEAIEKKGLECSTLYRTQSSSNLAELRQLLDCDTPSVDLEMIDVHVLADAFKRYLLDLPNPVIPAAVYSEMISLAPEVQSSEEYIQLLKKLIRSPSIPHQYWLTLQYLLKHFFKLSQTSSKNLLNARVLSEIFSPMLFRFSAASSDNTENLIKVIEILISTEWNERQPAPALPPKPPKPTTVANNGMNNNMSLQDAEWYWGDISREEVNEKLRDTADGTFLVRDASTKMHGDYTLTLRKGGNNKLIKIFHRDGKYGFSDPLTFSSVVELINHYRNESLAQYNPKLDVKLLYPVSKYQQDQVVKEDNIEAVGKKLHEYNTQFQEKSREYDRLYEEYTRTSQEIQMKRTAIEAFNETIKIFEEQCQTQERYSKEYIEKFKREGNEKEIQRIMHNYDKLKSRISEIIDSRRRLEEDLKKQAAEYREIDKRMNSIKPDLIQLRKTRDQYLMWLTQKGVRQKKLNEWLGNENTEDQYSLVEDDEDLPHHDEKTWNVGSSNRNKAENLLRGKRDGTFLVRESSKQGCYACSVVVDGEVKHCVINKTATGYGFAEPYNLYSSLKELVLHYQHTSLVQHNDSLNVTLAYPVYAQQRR
# T2 sequence (P42336 whole entry): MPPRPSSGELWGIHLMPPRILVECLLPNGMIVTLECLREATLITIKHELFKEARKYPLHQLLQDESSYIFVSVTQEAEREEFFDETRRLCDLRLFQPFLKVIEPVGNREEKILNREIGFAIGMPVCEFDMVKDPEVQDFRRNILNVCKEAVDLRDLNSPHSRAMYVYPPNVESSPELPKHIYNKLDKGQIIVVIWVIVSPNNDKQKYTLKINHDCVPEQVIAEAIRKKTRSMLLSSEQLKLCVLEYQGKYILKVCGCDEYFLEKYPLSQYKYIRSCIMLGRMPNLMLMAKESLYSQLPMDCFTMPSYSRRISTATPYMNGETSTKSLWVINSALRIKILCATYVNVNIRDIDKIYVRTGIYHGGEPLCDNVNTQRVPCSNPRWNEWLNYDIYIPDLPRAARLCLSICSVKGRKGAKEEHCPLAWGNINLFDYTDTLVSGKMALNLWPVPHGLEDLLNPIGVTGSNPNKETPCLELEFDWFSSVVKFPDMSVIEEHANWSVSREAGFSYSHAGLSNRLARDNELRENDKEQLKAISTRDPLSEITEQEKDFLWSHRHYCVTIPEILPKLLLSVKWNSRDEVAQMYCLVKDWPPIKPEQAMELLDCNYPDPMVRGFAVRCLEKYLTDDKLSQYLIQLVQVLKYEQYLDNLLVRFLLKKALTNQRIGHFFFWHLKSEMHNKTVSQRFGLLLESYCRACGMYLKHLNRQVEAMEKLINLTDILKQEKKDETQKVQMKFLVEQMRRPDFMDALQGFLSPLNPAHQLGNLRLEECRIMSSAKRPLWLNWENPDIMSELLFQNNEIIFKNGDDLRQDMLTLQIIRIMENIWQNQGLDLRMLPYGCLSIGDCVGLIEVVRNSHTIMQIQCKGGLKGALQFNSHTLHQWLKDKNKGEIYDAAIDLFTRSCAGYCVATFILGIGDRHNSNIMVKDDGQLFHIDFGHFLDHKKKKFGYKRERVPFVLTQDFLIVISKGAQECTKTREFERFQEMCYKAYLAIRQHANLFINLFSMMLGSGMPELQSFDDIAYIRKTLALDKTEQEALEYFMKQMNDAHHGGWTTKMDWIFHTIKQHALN
# T2 sequence (P27986 whole entry partner): as the sequence (P27986 whole entry partner) above
Compound,IC50 (PI3 Kbeta (PI3 Kb)) [nM],Inhibition values (IC50) PI3Ka (PI3Kalpha (PI3Ka)),IC50 (mTOR) [nM]
"CCNC(=O)Nc1ccc(-c2nc3c(c(N4CCOC[C@@H]4C)n2)CN(C(=O)OCC)CC3)cc1 [Example 107, (S)-ethyl 2-(4-(3-ethylureido)phenyl)-4-(3-methylmorpholino)-7,8-dihydropyrido[4,3-d]pyrimidine-6(5H)-carboxylate]",> 10000,D (D >10 μM),100 to 1000
"CCNC(=O)Nc1ccc(-c2nc3c(c(N4CCOC[C@@H]4C)n2)CN(C(=O)OC)C3)cc1 [Example 89, (S)-methyl 2-(4-(3-ethylureido)phenyl)-4-(3-methylmorpholino)-5H-pyrrolo[3,4-d]pyrimidine-6(7H)-carboxylate]",> 10000,D (D >10 μM),< 100
